Source: BindingDB's records for doi:10.1016/j.bmc.2006.12.019 (Berlex, 2007)

The molecules below were run against T1, Serine protease 1 (Bos taurus, UniProt P00760) (assay: Enzyme Inhibition Assay).
T1 sequence (P00760 whole entry): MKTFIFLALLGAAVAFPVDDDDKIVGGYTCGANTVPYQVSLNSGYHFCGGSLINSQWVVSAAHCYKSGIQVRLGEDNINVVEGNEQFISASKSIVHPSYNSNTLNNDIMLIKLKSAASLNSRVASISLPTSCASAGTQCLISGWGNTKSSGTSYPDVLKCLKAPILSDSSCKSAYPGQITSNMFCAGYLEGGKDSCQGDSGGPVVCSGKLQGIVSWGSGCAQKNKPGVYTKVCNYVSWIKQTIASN
Procedure: The enzyme activities were determined kinetically as the initial rate of cleavage of a peptide p-nitroanilide. Km for enzyme and substrate was determined using four substrate dilutions. Enzyme was incubated with test compounds for 10 min; the reaction was then started by the addition of the substrate. […] IC50 values for inhibitors were determined from the dose response curve by fitting the data to the Hill equation. Ki,app values were calculated as the IC50/2, with the IC50 value determined at a substrate concentration equal to Km

| Ki | Compound |
| --- | --- |
| > 5 µM | O=C(O)CN1CCN(Cc2ccc3c(Cl)c(C(=O)Nc4ccc(Cl)cc4C(=O)Nc4ccc(Cl)cc4)sc3c2)CC1 [2-(4-{[3-chloro-2-({4-chloro-2-[(4-chlorophenyl)carbamoyl]phenyl}carbamoyl)-1-benzothiophen-6-yl]methyl}piperazin-1-yl)acetic acid] |
| > 5 µM | O=C(Nc1ccc(Cl)cc1)c1cc(Cl)ccc1NC(=O)c1sc2ccccc2c1Cl [3-chloro-N-{4-chloro-2-[(4-chlorophenyl)carbamoyl]phenyl}-1-benzothiophene-2-carboxamide] |
| > 5 µM | O=C(Nc1ccc(Cl)cc1)c1cc(Cl)ccc1NC(=O)c1scc(Cn2ccnn2)c1Cl [3-chloro-N-{4-chloro-2-[(4-chlorophenyl)carbamoyl]phenyl}-4-(1H-1,2,3-triazol-1-ylmethyl)thiophene-2-carboxamide] |
| > 5 µM | O=C(Nc1ccc(Cl)cc1)c1cc(Cl)ccc1NC(=O)c1scc(Cn2cncn2)c1Cl [3-chloro-N-{4-chloro-2-[(4-chlorophenyl)carbamoyl]phenyl}-4-(1H-1,2,4-triazol-1-ylmethyl)thiophene-2-carboxamide] |
| > 5 µM | O=C(Nc1ccc(Cl)cc1)c1cc(Cl)ccc1NC(=O)c1scc(Cn2ccnc2)c1Cl [3-chloro-N-{4-chloro-2-[(4-chlorophenyl)carbamoyl]phenyl}-4-(1H-imidazol-1-ylmethyl)thiophene-2-carboxamide] |
| > 5 µM | O=C(Nc1ccc(Cl)cc1)c1cc(Cl)ccc1NC(=O)c1scc(Cn2cccn2)c1Cl [3-chloro-N-{4-chloro-2-[(4-chlorophenyl)carbamoyl]phenyl}-4-(1H-pyrazol-1-ylmethyl)thiophene-2-carboxamide] |
| > 5 µM | O=C(Nc1ccc(Cl)cc1)c1cc(Cl)ccc1NC(=O)c1scc(Cn2ncnn2)c1Cl [3-chloro-N-{4-chloro-2-[(4-chlorophenyl)carbamoyl]phenyl}-4-(2H-1,2,3,4-tetrazol-2-ylmethyl)thiophene-2-carboxamide] |
| > 5 µM | O=C(Nc1ccc(Cl)cc1)c1cc(Cl)ccc1NC(=O)c1scc(Cn2nccn2)c1Cl [3-chloro-N-{4-chloro-2-[(4-chlorophenyl)carbamoyl]phenyl}-4-(2H-1,2,3-triazol-2-ylmethyl)thiophene-2-carboxamide] |
| > 5 µM | C[S+]([O-])Cc1csc(C(=O)Nc2ccc(Cl)cc2C(=O)Nc2ccc(Cl)cc2)c1Cl (stereo unspecified) [3-chloro-N-{4-chloro-2-[(4-chlorophenyl)carbamoyl]phenyl}-4-(methanesulfinylmethyl)thiophene-2-carboxamide] |
| > 5 µM | CS(=O)(=O)Cc1csc(C(=O)Nc2ccc(Cl)cc2C(=O)Nc2ccc(Cl)cc2)c1Cl [3-chloro-N-{4-chloro-2-[(4-chlorophenyl)carbamoyl]phenyl}-4-(methanesulfonylmethyl)thiophene-2-carboxamide] |
| > 5 µM | O=C(Nc1ccc(Cl)cc1)c1cc(Cl)ccc1NC(=O)c1scc(CN2CCOCC2)c1Cl [3-chloro-N-{4-chloro-2-[(4-chlorophenyl)carbamoyl]phenyl}-4-(morpholin-4-ylmethyl)thiophene-2-carboxamide] |
| > 5 µM | O=C(Nc1ccc(Cl)cc1)c1cc(Cl)ccc1NC(=O)c1scc(CN2CCSCC2)c1Cl [3-chloro-N-{4-chloro-2-[(4-chlorophenyl)carbamoyl]phenyl}-4-(thiomorpholin-4-ylmethyl)thiophene-2-carboxamide] |
| > 5 µM | CN(CCOCCO)Cc1csc(C(=O)Nc2ccc(Cl)cc2C(=O)Nc2ccc(Cl)cc2)c1Cl [3-chloro-N-{4-chloro-2-[(4-chlorophenyl)carbamoyl]phenyl}-4-({[2-(2-hydroxyethoxy)ethyl](methyl)amino}methyl)thiophene-2-carboxamide] |
| > 5 µM | CCN(CC)CCN(C)Cc1csc(C(=O)Nc2ccc(Cl)cc2C(=O)Nc2ccc(Cl)cc2)c1Cl [3-chloro-N-{4-chloro-2-[(4-chlorophenyl)carbamoyl]phenyl}-4-({[2-(diethylamino)ethyl](methyl)amino}methyl)thiophene-2-carboxamide] |
| > 5 µM | CN(C)CCN(C)Cc1csc(C(=O)Nc2ccc(Cl)cc2C(=O)Nc2ccc(Cl)cc2)c1Cl [3-chloro-N-{4-chloro-2-[(4-chlorophenyl)carbamoyl]phenyl}-4-({[2-(dimethylamino)ethyl](methyl)amino}methyl)thiophene-2-carboxamide] |
| > 5 µM | CN(C)CCSCc1csc(C(=O)Nc2ccc(Cl)cc2C(=O)Nc2ccc(Cl)cc2)c1Cl [3-chloro-N-{4-chloro-2-[(4-chlorophenyl)carbamoyl]phenyl}-4-({[2-(dimethylamino)ethyl]sulfanyl}methyl)thiophene-2-carboxamide] |
| > 5 µM | O=C(Nc1ccc(Cl)cc1)c1cc(Cl)ccc1NC(=O)c1scc(CNCCCn2ccnc2)c1Cl [3-chloro-N-{4-chloro-2-[(4-chlorophenyl)carbamoyl]phenyl}-4-({[3-(1H-imidazol-1-yl)propyl]amino}methyl)thiophene-2-carboxamide] |
| > 5 µM | CN(C)CCCN(C)Cc1csc(C(=O)Nc2ccc(Cl)cc2C(=O)Nc2ccc(Cl)cc2)c1Cl [3-chloro-N-{4-chloro-2-[(4-chlorophenyl)carbamoyl]phenyl}-4-({[3-(dimethylamino)propyl](methyl)amino}methyl)thiophene-2-carboxamide] |
| > 5 µM | CN(CCN1CCCC1)Cc1csc(C(=O)Nc2ccc(Cl)cc2C(=O)Nc2ccc(Cl)cc2)c1Cl [3-chloro-N-{4-chloro-2-[(4-chlorophenyl)carbamoyl]phenyl}-4-({methyl[2-(pyrrolidin-1-yl)ethyl]amino}methyl)thiophene-2-carboxamide] |
| > 5 µM | O=C(Nc1ccc(Cl)cc1)c1cc(Cl)ccc1NC(=O)c1scc(COCC(O)CO)c1Cl (stereo unspecified) [3-chloro-N-{4-chloro-2-[(4-chlorophenyl)carbamoyl]phenyl}-4-[(2,3-dihydroxypropoxy)methyl]thiophene-2-carboxamide] |
| > 5 µM | COCCOCc1csc(C(=O)Nc2ccc(Cl)cc2C(=O)Nc2ccc(Cl)cc2)c1Cl [3-chloro-N-{4-chloro-2-[(4-chlorophenyl)carbamoyl]phenyl}-4-[(2-methoxyethoxy)methyl]thiophene-2-carboxamide] |
| > 5 µM | CC(=O)N1CCN(Cc2csc(C(=O)Nc3ccc(Cl)cc3C(=O)Nc3ccc(Cl)cc3)c2Cl)CC1 [3-chloro-N-{4-chloro-2-[(4-chlorophenyl)carbamoyl]phenyl}-4-[(4-acetylpiperazin-1-yl)methyl]thiophene-2-carboxamide] |
| > 5 µM | CCN1CCN(Cc2csc(C(=O)Nc3ccc(Cl)cc3C(=O)Nc3ccc(Cl)cc3)c2Cl)CC1 [3-chloro-N-{4-chloro-2-[(4-chlorophenyl)carbamoyl]phenyl}-4-[(4-ethylpiperazin-1-yl)methyl]thiophene-2-carboxamide] |
| > 5 µM | CSCc1csc(C(=O)Nc2ccc(Cl)cc2C(=O)Nc2ccc(Cl)cc2)c1Cl [3-chloro-N-{4-chloro-2-[(4-chlorophenyl)carbamoyl]phenyl}-4-[(methylsulfanyl)methyl]thiophene-2-carboxamide] |
| > 5 µM | Cc1cccc2sc(C(=O)Nc3ccc(Cl)cc3C(=O)Nc3ccc(Cl)cc3)c(Cl)c12 [3-chloro-N-{4-chloro-2-[(4-chlorophenyl)carbamoyl]phenyl}-4-methyl-1-benzothiophene-2-carboxamide] |
| > 5 µM | Cc1csc(C(=O)Nc2ccc(Cl)cc2C(=O)Nc2ccc(Cl)cc2)c1Cl [3-chloro-N-{4-chloro-2-[(4-chlorophenyl)carbamoyl]phenyl}-4-methylthiophene-2-carboxamide] |
